From ChEMBL document CHEMBL4184156, “Repurposing Hsp90 inhibitors as antibiotics targeting histidine kinases” (Bioorg Med Chem Lett, 2017)
Converted amounts (≈) assume the structure as drawn.

How the values were obtained:
[1] = target: T1, Virulence sensor histidine kinase PhoQ (Salmonella typhimurium (strain LT2 / SGSC1412 / ATCC 700720)) (UniProt P0DM80); assay: (§1) Inhibition of recombinant Salmonella typhimurium N-terminal His6-SUMO-tagged DHp-catalytic domain PhoQ (257 to 487 residues) autophosphorylation expressed in Escherichia coli BL21(DE3) at 500 uM preincubated for 10 mins followed by [gamma-32P]-ATP addition after 30 mins by phosphotransferase dot blot assay relative to control; set-up: scale not given: the % may be the effect or the level left; conditions: Salmonella enterica subsp. enterica serovar Typhimurium
T1 sequence (whole entry): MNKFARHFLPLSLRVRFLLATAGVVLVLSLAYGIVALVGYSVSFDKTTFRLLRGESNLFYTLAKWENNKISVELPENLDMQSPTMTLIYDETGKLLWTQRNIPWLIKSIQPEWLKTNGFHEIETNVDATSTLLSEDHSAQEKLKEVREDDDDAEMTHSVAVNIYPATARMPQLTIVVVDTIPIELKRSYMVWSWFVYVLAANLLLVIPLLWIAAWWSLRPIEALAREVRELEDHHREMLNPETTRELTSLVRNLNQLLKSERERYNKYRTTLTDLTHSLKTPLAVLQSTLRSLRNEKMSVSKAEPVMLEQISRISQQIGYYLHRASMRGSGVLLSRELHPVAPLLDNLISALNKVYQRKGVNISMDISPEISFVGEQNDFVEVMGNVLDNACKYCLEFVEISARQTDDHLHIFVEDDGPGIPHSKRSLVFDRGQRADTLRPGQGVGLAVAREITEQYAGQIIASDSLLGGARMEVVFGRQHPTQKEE

[2] = target: T2, Histidine protein kinase DivJ (Caulobacter vibrioides (strain ATCC 19089 / CB15) (Caulobactercrescentus)) (UniProt Q03228); assay: as §1, with “Caulobacter vibrioides” for “Salmonella typhimurium”, “His6-tagged” for “His6-SUMO-tagged”, “DivJ (188” for “PhoQ (257”, “585” for “487”, “15” for “30”; set-up: scale not given: the % may be the effect or the level left
T2 sequence (whole entry): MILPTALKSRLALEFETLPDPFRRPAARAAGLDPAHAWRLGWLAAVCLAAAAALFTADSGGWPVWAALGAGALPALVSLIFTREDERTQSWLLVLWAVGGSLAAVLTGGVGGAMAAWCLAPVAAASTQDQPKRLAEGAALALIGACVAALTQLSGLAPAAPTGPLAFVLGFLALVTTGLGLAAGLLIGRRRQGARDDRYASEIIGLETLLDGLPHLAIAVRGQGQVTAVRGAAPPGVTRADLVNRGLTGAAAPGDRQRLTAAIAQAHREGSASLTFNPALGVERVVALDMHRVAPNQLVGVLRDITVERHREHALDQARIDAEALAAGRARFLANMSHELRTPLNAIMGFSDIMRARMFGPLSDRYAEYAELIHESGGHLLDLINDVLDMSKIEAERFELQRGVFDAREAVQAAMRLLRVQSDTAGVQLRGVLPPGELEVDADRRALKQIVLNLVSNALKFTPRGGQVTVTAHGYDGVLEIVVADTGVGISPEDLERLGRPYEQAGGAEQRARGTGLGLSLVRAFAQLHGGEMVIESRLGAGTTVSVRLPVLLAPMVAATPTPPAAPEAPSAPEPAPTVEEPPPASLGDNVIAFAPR

[3] = Hemolytic activity against sheep RBC at 0.5 mM after 30 mins relative to control; assay type: ADME, cell-based, Ovis aries, Erythrocyte; conditions: sheep red blood cells (erythrocytes), read-out: Activity
Escherichia coli = assay: Antibacterial activity against Escherichia coli DC2 after 24 hrs by broth dilution method; assay type: functional; conditions: DC2, 24 h
Bacillus subtilis = assay: Antibacterial activity against Bacillus subtilis YB886 after 24 hrs by broth dilution method; assay type: functional; conditions: YB886, 24 h
Caulobacter vibrioides = assay: Antibacterial activity against Caulobacter crescentus NA1000 after 24 hrs by broth dilution method; assay type: functional; conditions: NA1000, 24 h
[4] = target: T3, Cell cycle histidine kinase CckA (Caulobacter vibrioides) (UniProt Q9X688); assay: Binding affinity to recombinant Caulobacter vibrioides cell cycle histidine kinase CckA delta 3 mutant DHp domain (190 to 562 residues) expressed in Escherichia coli assessed as change in metlting temperature at 30 uM after 2 mins by SYPRO orange dye based DSF assay
T3 sequence (whole entry): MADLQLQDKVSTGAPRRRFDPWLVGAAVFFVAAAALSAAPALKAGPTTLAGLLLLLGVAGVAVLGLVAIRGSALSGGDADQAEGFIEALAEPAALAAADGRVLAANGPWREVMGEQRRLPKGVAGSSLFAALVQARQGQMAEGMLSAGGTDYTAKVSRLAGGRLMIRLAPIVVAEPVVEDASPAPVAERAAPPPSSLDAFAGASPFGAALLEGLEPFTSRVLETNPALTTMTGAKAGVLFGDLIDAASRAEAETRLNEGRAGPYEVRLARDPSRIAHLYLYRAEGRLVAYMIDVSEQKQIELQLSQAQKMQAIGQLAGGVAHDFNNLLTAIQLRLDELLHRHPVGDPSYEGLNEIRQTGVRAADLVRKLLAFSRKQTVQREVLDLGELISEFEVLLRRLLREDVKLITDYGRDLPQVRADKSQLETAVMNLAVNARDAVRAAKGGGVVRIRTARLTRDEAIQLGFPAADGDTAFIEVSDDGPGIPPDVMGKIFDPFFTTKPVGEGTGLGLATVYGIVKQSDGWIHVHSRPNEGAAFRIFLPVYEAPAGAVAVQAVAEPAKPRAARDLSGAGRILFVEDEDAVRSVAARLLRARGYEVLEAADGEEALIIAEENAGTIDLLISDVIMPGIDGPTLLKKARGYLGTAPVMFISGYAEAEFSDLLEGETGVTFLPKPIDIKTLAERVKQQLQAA

[5] = target: T3, Cell cycle histidine kinase CckA (Caulobacter vibrioides); assay: Inhibition of recombinant Caulobacter vibrioides cell cycle histidine kinase CckA deltaTM mutant DHp domain (70 to 691 residues) expressed in Escherichia coli at 250 uM in presence of varying levels of ATP measured every 60 secs for 2 hrs by PK/LDH enzyme coupled assay relative to control
[6] = target: Cell cycle histidine kinase CckA (Caulobacter vibrioides, UniProt Q9X688); assay: Inhibition of recombinant Caulobacter vibrioides cell cycle histidine kinase CckA deltaTM mutant DHp domain (70 to 691 residues) expressed in Escherichia coli in presence of varying levels of ATP measured every 60 secs for 2 hrs by PK/LDH enzyme coupled assay
[7] = target: T4, Virulence sensor histidine kinase PhoQ (Salmonella typhimurium (strain LT2 / SGSC1412 / ATCC 700720), UniProt P0DM80); assay: Inhibition of recombinant Salmonella typhimurium N-terminal His6-SUMO-tagged DHp-catalytic domain PhoQ (257 to 487 residues) autophosphorylation expressed in Escherichia coli BL21 (DE3) preincubated for 10 mins followed by [gamma-32P]-ATP addition after 30 mins by phosphotransferase dot blot assay; set-up: species or system Salmonella enterica subsp. enterica serovar Typhimurium
T4 sequence (P0DM80 whole entry): T1 sequence (whole entry)

Compound	Activity [1]	Activity [2]	hemolysis at 0.5 h, 500 µM [3]	MIC (Escherichia coli)	MIC (Bacillus subtilis)	MIC (Caulobacter vibrioides)	ΔTm [4]	inhibition [5]	IC50 [6]	IC50 [7]
CN(C)c1cc2c(cc1Sc1nc3c(N)nccc3n1CCNCC(C)(C)C)OCO2 [CUDC-305]	110%	96%	3%	4.7 to 75 µM (≈ 2.08 to 33.2 µg/mL)	> 300 µM	> 300 µM	0.4 °C	79%	–	–
CCc1cc(-c2n[nH]c(C)c2-c2ccc(OC)cc2)c(O)cc1O	36%	118%	15%	75 µM (≈ 24.3 µg/mL)	112 µM (≈ 36.5 µg/mL)	225 µM (≈ 73 µg/mL)	4.1 °C	–	18.6 µM	–
Cc1n[nH]c(-c2cc(Cl)c(O)cc2O)c1-c1ccccc1	45%	115%	–	37.5 to 75 µM (≈ 11.3 to 22.6 µg/mL)	150 µM (≈ 45.1 µg/mL)	225 µM (≈ 67.7 µg/mL)	4.5 °C	–	–	–
CCc1cc(-c2n[nH]c(C)c2-c2ccc3c(c2)OCCO3)c(O)cc1O	–	–	14%	–	–	–	–	–	28 to 30 µM	261 µM
Oc1cc(O)c(-c2n[nH]cc2-c2ccccc2)cc1Cl	63%	92%	0%	37.5 µM (≈ 10.8 µg/mL)	225 µM (≈ 64.5 µg/mL)	150 to 225 µM (≈ 43 to 64.5 µg/mL)	3.5 °C	–	33.6 µM	–
COc1c(C)cnc(Cn2cnc3c(Cl)nc(N)nc32)c1C [BIIB021]	87%	128%	6%	> 300 µM	> 300 µM	> 300 µM	0.7 °C	87%	–	–
COc1ccc(-c2c[nH]nc2-c2ccc(O)cc2O)cc1	87%	85%	3%	37.5 to 112 µM (≈ 10.6 to 31.8 µg/mL)	> 300 µM	> 300 µM	3.5 °C	–	56.9 µM	–
Nc1ncnc2c1ncn2[C@@H]1O[C@H](COP(=O)(O)OP(=O)(O)NP(=O)(O)O)[C@@H](O)[C@H]1O	–	–	–	–	–	–	3.5 °C	–	–	–
COc1ccc(-c2c[nH]nc2-c2cc(Cl)c(O)cc2O)cc1	62%	112%	0%	37.5 µM (≈ 11.9 µg/mL)	150 µM (≈ 47.5 µg/mL)	225 µM (≈ 71.3 µg/mL)	4.2 °C	–	32.7 µM	–
